Measured values taken from patent US9783541B2, “5′-nucleotidase inhibitors and therapeutic uses thereof” (Centre National de la Recherche Scientifique-CNRS, priority 2013, dated 2017).
Like-named read-outs stand apart in the source and are kept apart here.

What was measured:
[1] = biological target: purified recombinant cN-II enzyme (Homo sapiens, UniProt P49902); experiment: cN-II inhibition test (inorganic phosphate from IMP, Malachite green); assay type: biochemical; set-up: key to Inhibition strength (Strong/Medium/Weak): Strong; Medium; Weak
Protocol: The activity of cN-II is measured in vitro by following the appearance of the inorganic phosphate produced during the enzymatic reaction. The purified recombinant cN-II enzyme is used in the presence of its preferential substrate, inosine 5′-monophosphate (IMP). During the hydrolysis reaction, inosine and inorganic phosphate are produced from the IMP. This phosphate is then assayed by means of a colorimetric method using Malachite green (kit sold by the company Gentaur): the reading of absorbence at 630 nm makes it possible to quantify the inorganic phosphate.
The reagents used are: 50 mM imidazole buffer, pH=6.5, 500 mM NaCl and 10 mM MgCl2. The enzyme (cN-II) concentration is 0.1 μM and the IMP concentration is 100 μM.
A phosphate concentration range is performed in parallel in order to quantify the phosphate produced during the reaction.

RL cancer line = experiment: Synergy MTT test with cytotoxic nucleoside analogs; assay type: cell-based, Human; settings: for Synergy MTT with cladribine / Synergy MTT with clofarabine / Synergy MTT with fludarabine: RL cells, 72 h, constant ratio, CI95; for Synergy MTT with cladribine: partner cladribine; for Synergy MTT with clofarabine: partner clofarabine; for Synergy MTT with fludarabine: partner fludarabine; for synergistic effect with at least one of the three anticancer agents: cladribine, clofarabine, fludarabine
Protocol: (§2) After 72 h of incubation, the living cells are quantified using the MTT reagent.
(§3) The inhibitory concentration 50 (IC50) and the combination index (CI95) are calculated with the CompuSyn software 1.0 (ComboSyn, Inc., USA).
The CI95 is calculated according to the method of Chou and Talalay^3 with a formula which takes into account the concentrations of the two compounds and the fraction affected at these concentrations (i.e. the dead cells).

[2] = test system: RL human follicular lymphoma cell line; experiment: cytotoxicity on RL cancer line (MTT, IC50); settings: for IC50: read-out: RL cancer line IC50, 72 h incubation, MTT
Protocol: as §2, §3

cells of AML patients = experiment: ex vivo cytotoxicity, Annexin V / propidium iodide flow cytometry, AML patient cells; assay type: cell-based, human; settings: 100 μM, 24 hours
Protocol: (§1) Peripheral blood was recovered from patients suffering from chronic […] leukemia (LLC) or from acute myeloid leukemia (AML) in heparinized tubes. […] The cells having experienced an effect of the incubations are labeled with Annexin V alone or with propidium iodide (see FIG. 6).

cells of CLL patients = experiment: ex vivo cytotoxicity, Annexin V / propidium iodide flow cytometry, CLL patient cells; assay type: cell-based, human; settings: 10 μM, 24 hours
Protocol: as §1

[3] = 200 μM compound, 0.1 μM cN-II, 100 μM IMP, pH 6.5, 37° C.

Chain of purified recombinant cN-II enzyme (P49902 whole entry): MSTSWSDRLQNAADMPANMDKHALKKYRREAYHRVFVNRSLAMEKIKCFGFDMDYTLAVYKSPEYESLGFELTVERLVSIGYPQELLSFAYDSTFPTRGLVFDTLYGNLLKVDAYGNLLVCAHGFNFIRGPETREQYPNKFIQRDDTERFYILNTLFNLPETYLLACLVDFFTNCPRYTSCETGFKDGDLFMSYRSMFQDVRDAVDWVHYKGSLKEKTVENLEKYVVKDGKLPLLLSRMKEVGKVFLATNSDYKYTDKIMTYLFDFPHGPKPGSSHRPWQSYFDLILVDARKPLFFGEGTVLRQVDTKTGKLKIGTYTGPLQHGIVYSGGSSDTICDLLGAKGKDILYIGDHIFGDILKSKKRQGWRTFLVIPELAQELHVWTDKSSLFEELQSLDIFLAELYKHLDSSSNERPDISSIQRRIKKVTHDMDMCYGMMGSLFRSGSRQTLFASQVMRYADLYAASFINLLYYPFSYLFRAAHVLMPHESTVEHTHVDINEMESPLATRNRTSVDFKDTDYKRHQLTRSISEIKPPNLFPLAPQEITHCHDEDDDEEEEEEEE

Molecule	Synergy MTT with cladribine (RL cancer line)	Synergy MTT with fludarabine (RL cancer line)	synergistic effect with at least one of the three anticancer agents (RL cancer line)	Inhibition cN-II in vitro (200 μM) [1, 3]	Inhibition strength (Strong/Medium/Weak) ([1]; cN-II)	IC50 [2]	further results
9-(phenylmethyl)-9H-purin-6-yl-[1,1′-biphenyl]-3-carboxamide [(20)]	Antagonistic with (values above 1.1 indicate antagonism)	Synergy with (CI95 values below 0.9 indicate synergy between the two compounds)	synergistic effect	–	–	–	Inhibition strength (Strong/Medium/Weak) [1]: S; Inhibition cN-II in vitro (200 μM) ([1]; pH 6.5): 58 +/−19%; Synergy MTT with clofarabine (RL cancer line): Antagonistic with (values above 1.1 indicate antagonism)
O=C(Nc1ncnc2ncn(Cc3ccccc3)c12)c1cccc(-c2ccccc2)c1 [(19)]	Synergy with (CI95 values below 0.9 indicate synergy between the two compounds)	Synergy with (CI95 values below 0.9 indicate synergy between the two compounds)	synergistic effect	68 +/− 15%	S	60 µM	–
O=C(Nc1ncnc2ncn(COCc3ccccc3)c12)c1cccc(-c2ccccc2)c1 [(21)]	Synergy with (CI95 values below 0.9 indicate synergy between the two compounds)	Additive with (values between 0.9 and 1.1 indicate additivity)	synergistic effect	50 +/− 2%	M	36 µM	intrinsic cytotoxic activity, IC50 values ([2]; cell model used (RL)): a few micromolar to a few tens of micromolar; Synergy MTT with clofarabine (RL cancer line): Synergy with (CI95 values below 0.9 indicate synergy between the two compounds)
O=C(Nc1ncnc2c1ncn2COCc1ccccc1)c1cccc(-c2ccccc2)c1 [(22), 9-[(phenylmethoxy)methyl]-9H-purin-6-yl-[1,1′-biphenyl]-3-carboxamide]	–	–	–	43 +/− 7%	M	188 µM	–
O=S(=O)(Nc1ncnc2[nH]cnc12)c1ccc(-c2ccccc2)cc1 [(33), 9H-purin-6-yl-[1,1′-biphenyl]-4-sulfonamide]	–	–	–	70 +/− 5%	S	195 µM	–
Nc1ccn([C@@H]2O[C@H](CO)[C@@H](O)[C@@H]2O)c(=O)n1 [cytarabine]	–	–	–	–	–	–	Annexin V labeling, AML samples, mean over the five samples (cells of AML patients): 44.5%
Nc1nc(F)nc2c1ncn2[C@@H]1O[C@H](CO)[C@@H](O)[C@@H]1O [fludarabine]	–	–	–	–	–	–	Annexin V labeling, CLL samples (cells of CLL patients): 45.8%
(naphthalene-1-carbonylamino-9H-purin-6-yl)methylphosphonic acid [(31)]	–	–	–	10%	W	250 µM	–
(naphthalene-2-carbonylamino-9H-purin-6-yl)methylphosphonic acid [(32)]	–	–	–	10%	W	145 µM	–
